Each structure is given as a SMILES string.

Experiment [1] concerns the target T1, Protein kinase C iota type (Homo sapiens) (UniProt P41743).
T1 sequence (whole entry): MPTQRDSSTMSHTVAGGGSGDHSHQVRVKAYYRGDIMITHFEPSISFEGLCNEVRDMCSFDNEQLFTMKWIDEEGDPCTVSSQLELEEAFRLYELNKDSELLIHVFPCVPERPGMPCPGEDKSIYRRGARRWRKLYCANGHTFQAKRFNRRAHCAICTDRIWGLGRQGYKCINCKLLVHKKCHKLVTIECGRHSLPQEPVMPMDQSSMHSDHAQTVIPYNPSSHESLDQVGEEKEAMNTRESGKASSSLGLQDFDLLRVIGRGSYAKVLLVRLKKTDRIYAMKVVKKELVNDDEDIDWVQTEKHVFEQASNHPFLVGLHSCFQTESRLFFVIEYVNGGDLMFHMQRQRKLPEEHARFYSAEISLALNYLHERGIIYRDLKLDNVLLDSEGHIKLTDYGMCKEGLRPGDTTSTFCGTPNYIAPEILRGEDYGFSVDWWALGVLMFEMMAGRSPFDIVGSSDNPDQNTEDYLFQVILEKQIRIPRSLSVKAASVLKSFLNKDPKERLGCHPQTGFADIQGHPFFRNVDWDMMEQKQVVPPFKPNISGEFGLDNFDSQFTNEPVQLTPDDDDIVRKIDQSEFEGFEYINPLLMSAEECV
The experiment is described as follows: Residual activity of PKCiota at 0.1 uM by microplate scintillation counting.

Experiment [2] addresses Glycogen synthase kinase-3 beta (Homo sapiens) (UniProt P49841). The experiment is described as follows: Residual activity of GSK3-beta at 10 uM by microplate scintillation counting.
Experiment [3] addresses T2, Serine/threonine-protein kinase TBK1 (Homo sapiens) (UniProt Q9UHD2).
T2 sequence (whole entry): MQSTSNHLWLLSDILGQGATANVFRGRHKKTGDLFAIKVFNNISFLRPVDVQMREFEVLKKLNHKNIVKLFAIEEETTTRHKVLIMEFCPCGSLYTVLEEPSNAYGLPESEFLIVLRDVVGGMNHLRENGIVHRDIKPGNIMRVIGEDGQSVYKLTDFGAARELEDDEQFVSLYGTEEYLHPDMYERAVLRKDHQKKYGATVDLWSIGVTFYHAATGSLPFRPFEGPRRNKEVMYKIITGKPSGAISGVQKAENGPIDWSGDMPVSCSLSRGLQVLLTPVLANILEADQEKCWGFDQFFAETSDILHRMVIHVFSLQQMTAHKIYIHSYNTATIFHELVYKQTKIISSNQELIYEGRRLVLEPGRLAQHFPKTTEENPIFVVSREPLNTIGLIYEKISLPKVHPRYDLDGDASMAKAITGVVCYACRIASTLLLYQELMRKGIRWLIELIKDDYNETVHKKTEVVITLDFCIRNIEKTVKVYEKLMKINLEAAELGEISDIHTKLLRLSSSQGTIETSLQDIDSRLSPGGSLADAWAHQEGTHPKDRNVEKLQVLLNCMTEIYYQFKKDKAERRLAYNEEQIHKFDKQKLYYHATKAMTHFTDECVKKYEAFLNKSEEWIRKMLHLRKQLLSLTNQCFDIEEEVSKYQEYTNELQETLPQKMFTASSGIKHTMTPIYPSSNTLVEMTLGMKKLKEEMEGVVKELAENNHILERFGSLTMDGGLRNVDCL
The experiment in a line: Residual activity of TBK1 at 10 uM by microplate scintillation counting.

In experiment [4] the target is Serine/threonine-protein kinase pim-2 (Homo sapiens) (UniProt Q9P1W9). The experiment is described as follows: Residual activity of PIM2 at 10 uM by microplate scintillation counting.
Chain of Serine/threonine-protein kinase pim-2 (Homo sapiens) (Q9P1W9 whole entry, looked up): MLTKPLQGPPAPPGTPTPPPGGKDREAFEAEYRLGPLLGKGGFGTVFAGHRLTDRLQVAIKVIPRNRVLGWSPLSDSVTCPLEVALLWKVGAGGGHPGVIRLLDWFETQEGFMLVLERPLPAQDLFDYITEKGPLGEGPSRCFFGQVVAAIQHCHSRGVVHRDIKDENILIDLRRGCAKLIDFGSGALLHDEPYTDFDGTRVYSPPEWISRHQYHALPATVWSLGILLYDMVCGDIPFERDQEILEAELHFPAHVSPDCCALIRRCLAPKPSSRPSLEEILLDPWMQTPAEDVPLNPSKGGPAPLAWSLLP
The target in experiment [5] is T3, Serine/threonine-protein kinase 3 (Homo sapiens) (UniProt Q13188).
T3 sequence (whole entry): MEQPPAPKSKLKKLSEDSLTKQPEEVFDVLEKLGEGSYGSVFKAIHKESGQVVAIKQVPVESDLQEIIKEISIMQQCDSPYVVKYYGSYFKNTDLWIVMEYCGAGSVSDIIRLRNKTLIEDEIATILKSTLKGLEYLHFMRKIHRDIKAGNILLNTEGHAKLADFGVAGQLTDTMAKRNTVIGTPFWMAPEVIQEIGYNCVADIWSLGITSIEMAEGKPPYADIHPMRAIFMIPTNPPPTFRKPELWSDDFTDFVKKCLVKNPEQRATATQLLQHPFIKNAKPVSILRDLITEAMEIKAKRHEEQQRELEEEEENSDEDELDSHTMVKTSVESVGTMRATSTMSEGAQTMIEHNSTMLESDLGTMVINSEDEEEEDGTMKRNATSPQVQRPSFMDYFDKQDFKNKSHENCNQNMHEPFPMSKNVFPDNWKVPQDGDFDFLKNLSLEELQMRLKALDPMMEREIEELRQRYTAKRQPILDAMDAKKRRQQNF
The experiment is described as follows: Residual activity of MST2 at 1 uM by microplate scintillation counting.

In experiment [6] the target is T4, Eukaryotic elongation factor 2 kinase (Homo sapiens) (UniProt O00418).
T4 sequence (whole entry): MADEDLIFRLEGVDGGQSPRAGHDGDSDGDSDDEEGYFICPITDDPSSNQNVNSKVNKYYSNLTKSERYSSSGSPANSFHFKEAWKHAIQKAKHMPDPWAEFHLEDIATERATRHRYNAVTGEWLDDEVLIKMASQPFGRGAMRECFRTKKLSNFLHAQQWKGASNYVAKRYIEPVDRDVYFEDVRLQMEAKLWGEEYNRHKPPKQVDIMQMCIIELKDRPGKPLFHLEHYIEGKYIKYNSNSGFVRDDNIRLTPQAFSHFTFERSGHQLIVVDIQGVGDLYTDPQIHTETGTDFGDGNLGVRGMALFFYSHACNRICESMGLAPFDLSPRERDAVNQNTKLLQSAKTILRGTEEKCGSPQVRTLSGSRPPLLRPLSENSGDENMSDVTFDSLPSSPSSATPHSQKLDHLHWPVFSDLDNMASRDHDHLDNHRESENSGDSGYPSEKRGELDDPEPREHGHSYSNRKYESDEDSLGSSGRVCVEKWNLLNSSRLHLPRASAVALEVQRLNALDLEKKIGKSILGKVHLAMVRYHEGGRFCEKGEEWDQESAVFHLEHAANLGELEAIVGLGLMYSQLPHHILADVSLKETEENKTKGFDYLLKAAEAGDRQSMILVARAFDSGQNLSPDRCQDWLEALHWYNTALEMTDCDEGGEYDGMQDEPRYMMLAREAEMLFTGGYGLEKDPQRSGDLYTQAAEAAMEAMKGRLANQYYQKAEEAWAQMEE
The experiment in a line: Residual activity of EEF2K at 10 uM by microplate scintillation counting.

For experiment [7], the target named is High affinity nerve growth factor receptor (Homo sapiens) (UniProt P04629). The experiment in a line: Residual activity of TRK-A at 0.1 uM by microplate scintillation counting.
Chain of High affinity nerve growth factor receptor (Homo sapiens) (P04629 33-796 limits assumed): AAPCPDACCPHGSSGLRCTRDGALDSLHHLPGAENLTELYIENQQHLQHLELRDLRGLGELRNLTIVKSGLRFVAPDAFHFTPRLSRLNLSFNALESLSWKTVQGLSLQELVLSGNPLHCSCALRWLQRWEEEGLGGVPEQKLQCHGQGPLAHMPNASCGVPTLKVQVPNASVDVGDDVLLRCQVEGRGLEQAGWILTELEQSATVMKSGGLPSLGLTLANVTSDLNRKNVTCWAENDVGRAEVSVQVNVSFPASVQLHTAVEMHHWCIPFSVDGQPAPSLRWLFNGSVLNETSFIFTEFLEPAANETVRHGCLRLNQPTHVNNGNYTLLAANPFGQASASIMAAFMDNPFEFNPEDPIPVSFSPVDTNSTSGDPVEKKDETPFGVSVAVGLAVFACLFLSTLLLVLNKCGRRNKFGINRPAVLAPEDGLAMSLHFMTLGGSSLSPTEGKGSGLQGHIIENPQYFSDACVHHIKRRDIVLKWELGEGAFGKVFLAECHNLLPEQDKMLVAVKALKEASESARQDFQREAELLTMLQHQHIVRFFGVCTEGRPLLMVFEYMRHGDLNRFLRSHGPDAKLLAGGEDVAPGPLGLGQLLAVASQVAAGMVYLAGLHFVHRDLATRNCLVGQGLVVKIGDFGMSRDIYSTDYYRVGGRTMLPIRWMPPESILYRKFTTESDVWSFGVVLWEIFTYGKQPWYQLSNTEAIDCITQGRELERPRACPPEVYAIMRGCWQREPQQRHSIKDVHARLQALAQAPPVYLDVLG

Chain of Glycogen synthase kinase-3 beta (Homo sapiens) (P49841 whole entry, looked up): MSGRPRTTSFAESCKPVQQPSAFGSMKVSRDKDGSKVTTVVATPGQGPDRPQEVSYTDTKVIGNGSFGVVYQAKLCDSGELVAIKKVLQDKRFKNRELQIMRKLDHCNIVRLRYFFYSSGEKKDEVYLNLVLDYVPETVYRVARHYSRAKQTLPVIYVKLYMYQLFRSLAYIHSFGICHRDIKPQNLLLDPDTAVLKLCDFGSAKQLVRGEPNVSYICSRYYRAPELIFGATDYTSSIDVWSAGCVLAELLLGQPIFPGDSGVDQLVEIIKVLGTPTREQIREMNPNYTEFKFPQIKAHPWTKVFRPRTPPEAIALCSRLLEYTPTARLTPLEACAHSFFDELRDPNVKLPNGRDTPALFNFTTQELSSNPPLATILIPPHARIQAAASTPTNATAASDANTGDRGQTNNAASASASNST

What is called residual activity is the signal under treatment as a percentage of the control signal. For the compound `COc1cc2c(Oc3ccc(-c4nc5ccccc5s4)cc3F)ncnc2cc1OCCCN1CCN(C)CC1`, the residual activity in experiment [1] worked out at 87%; in experiment [2], 98%; in experiment [3] it was 141%; in experiment [4], 85%; in experiment [5] it was 86%; in experiment [6], 120%. For the same compound, the residual activity in experiment [7] came to 88%.
`COc1cc2c(Oc3ccc(-c4nc5ccccc5s4)cc3)ncnc2cc1OCCCN1CCN(C)CC1`: the residual activity in experiment [1] is 105%; in experiment [2] it was 123%; in experiment [3], 171%; in experiment [4], 73%; in experiment [5], 67%; in experiment [6] it was 91%. Further, in experiment [7], the residual activity was 104%.
For `COc1cc2c(Oc3ccc(-c4nc5ccccc5s4)cc3)ncnc2cc1OCCCN1CCCC1`, the residual activity in experiment [1] was found to be 102%; in experiment [2], 104%; in experiment [3] it was 143%; in experiment [4], 113%; in experiment [5] it was 66%; in experiment [6], 104%. The residual activity in experiment [7] is 83%.

For the origin of these results see ChEMBL document CHEMBL1152560, “Substituted 2-arylbenzothiazoles as kinase inhibitors: hit-to-lead optimization” (Bioorg Med Chem, 2009).
